Legend:
Assay in all cases: KINOMEscan Max
Type in all cases: binding
[1] = biological target: T1, ABL1(F317L)-nonphosphorylated (Homo sapiens, UniProt P00519, F317L)
T1 construct: purchased Ambit (KINOMEscan Max service)
Protocol: (§1) Kinase panel profiling was performed at Ambit Kinomescan (http://www.ambitbio.com/technology/) using the “KINOMEscan™ Max” assay platform, a high-throughput method for screening small molecule compounds against large numbers of human kinases. KINOMEscan™ is based on a competition binding assay that quantitatively measures the ability of a compound to compete with an immobilized, active-site directed ligand. The assay is performed by combining three components: DNA-tagged kinase; immobilized ligand; and a test compound. The ability of the test compound to compete with the immobilized ligand is measured via quantitative PCR of the DNA tag. For a description of Ambit's assay protocol, see Fabian et al. A small molecule-kinase interaction map for clinical kinase inhibitors. Nat. Biotechnol. 23, 329-336 (2005).

[2] = biological target: T2, TTK (Homo sapiens, UniProt P33981)
T2 construct: purchased Ambit Kinomescan (contract screening service)
Protocol: as §1

[3] = biological target: ADCK3 (Homo sapiens, UniProt Q8NI60)
Protocol: as §1

[4] = biological target: T3, DYRK2 (Homo sapiens, UniProt Q92630)
T3 construct: DNA tag (qPCR read-out); purchased Ambit Kinomescan
Protocol: as §1

[5] = biological target: ABL1(Q252H)-phosphorylated (Homo sapiens, UniProt P00519, Q252H)
Protocol: as §1

[6] = biological target: T4, DAPK2 (Homo sapiens, UniProt Q9UIK4)
T4 construct: DNA tag (qPCR read-out)
Protocol: as §1

[7] = biological target: MYO3A (Homo sapiens, UniProt Q8NEV4)
Protocol: as §1

[8] = biological target: T5, TYRO3 (Homo sapiens, UniProt Q06418)
T5 construct: purchased Ambit Kinomescan (contract screening service)
Protocol: as §1

[9] = biological target: T6, AURKC (Homo sapiens, UniProt Q9UQB9)
T6 construct: purchased Ambit (KINOMEscan Max service)
Protocol: as §1

[10] = biological target: T7, FLT3(K663Q) (Homo sapiens, UniProt P36888, K663Q)
T7 construct: purchased Ambit Kinomescan (contract screening)
Protocol: as §1

[11] = biological target: T8, SIK2 (Homo sapiens, UniProt Q9H0K1)
T8 construct: DNA tag (qPCR read-out)
Protocol: as §1

[12] = biological target: T9, ERK1 (Homo sapiens, UniProt P27361)
T9 construct: purchased Ambit Kinomescan (contract panel, KINOMEscan Max)
Protocol: as §1

[13] = biological target: T10, TLK2 (Homo sapiens, UniProt Q86UE8)
T10 construct: purchased Ambit Kinomescan (contract screening service)
Protocol: as §1

[14] = biological target: T11, CAMKK2 (Homo sapiens, UniProt Q96RR4)
T11 construct: DNA tag (qPCR label); purchased Ambit Kinomescan (contract screening)
Protocol: as §1

[15] = biological target: DRAK1 (Homo sapiens, UniProt Q9UEE5)
Protocol: as §1

[16] = biological target: T12, MET(M1250T) (Homo sapiens, UniProt P08581, M1250T); settings: 1 μM
T12 construct: DNA tag (qPCR read-out)
Protocol: as §1

[17] = biological target: T13, RIPK4 (Homo sapiens, UniProt P57078)
T13 construct: DNA tag (qPCR read-out)
Protocol: as §1

[18] = biological target: T14, MERTK (Homo sapiens, UniProt Q12866)
T14 construct: purchased Ambit (KINOMEscan Max service)
Protocol: as §1

[19] = biological target: ABL1(F317I)-phosphorylated (Homo sapiens, UniProt P00519, F317I)
Protocol: as §1

[20] = biological target: T15, DCAMKL3 (Homo sapiens, UniProt Q9C098)
T15 construct: purchased Ambit (KINOMEscan Max panel service)
Protocol: as §1

[21] = biological target: T16, MAP4K4 (Homo sapiens, UniProt O95819)
T16 construct: purchased Ambit Kinomescan (contract screening)
Protocol: as §1

[22] = biological target: T17, PAK2 (Homo sapiens, UniProt Q13177)
T17 construct: purchased Ambit (KINOMEscan Max service)
Protocol: as §1

[23] = biological target: T18, HCK (Homo sapiens, UniProt P08631)
T18 construct: purchased Ambit Kinomescan (contract screening)
Protocol: as §1

[24] = biological target: T19, SRC (Homo sapiens, UniProt P12931)
T19 construct: purchased Ambit Kinomescan (contract screening)
Protocol: as §1

[25] = biological target: T20, CLK2 (Homo sapiens, UniProt P49760)
T20 construct: DNA tag (qPCR read-out)
Protocol: as §1

[26] = biological target: T21, EGFR(T790M) (Homo sapiens, UniProt P00533, T790M); settings: 1 μM
T21 construct: purchased Ambit (KINOMEscan Max panel service)
Protocol: as §1

[27] = biological target: ABL1(T315I)-nonphosphorylated (Homo sapiens, UniProt P00519, T315I)
Protocol: as §1

[28] = biological target: T22, ARK5 (Homo sapiens, UniProt O60285); settings: 1 μM
T22 construct: DNA tag (qPCR label); purchased Ambit Kinomescan (contract screening)
Protocol: as §1

[29] = biological target: T23, YSK1 (Homo sapiens, UniProt O00506)
T23 construct: purchased Ambit Kinomescan (contract screening service)
Protocol: as §1

[30] = biological target: T24, EGFR(G719C) (Homo sapiens, UniProt P00533, G719C); settings: 1 μM
T24 construct: purchased Ambit (KINOMEscan Max panel service)
Protocol: as §1

[31] = biological target: DAPK3 (Homo sapiens, UniProt O43293)
Protocol: as §1

[32] = biological target: ABL1(Q252H)-nonphosphorylated (Homo sapiens, UniProt P00519, Q252H)
Protocol: as §1

[33] = biological target: PIK3CA(E542K) (Homo sapiens, UniProt P42336, E542K)
Protocol: as §1

[34] = biological target: T25, ACVR2A (Homo sapiens, UniProt P27037)
T25 construct: DNA tag (qPCR label); purchased Ambit Kinomescan (contract screening)
Protocol: as §1

T4 sequence (Q9UIK4 whole entry): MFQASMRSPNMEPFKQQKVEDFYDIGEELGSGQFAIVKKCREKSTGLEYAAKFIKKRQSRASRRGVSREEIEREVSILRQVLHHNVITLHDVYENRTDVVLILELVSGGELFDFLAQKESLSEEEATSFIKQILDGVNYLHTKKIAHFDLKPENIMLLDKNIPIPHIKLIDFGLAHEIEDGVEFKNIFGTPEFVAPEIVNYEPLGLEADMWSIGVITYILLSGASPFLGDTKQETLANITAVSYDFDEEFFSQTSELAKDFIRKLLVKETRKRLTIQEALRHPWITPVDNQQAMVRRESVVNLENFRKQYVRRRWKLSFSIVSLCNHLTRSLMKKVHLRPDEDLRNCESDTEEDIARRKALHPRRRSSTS
Chain of MYO3A (Q8NEV4 whole entry): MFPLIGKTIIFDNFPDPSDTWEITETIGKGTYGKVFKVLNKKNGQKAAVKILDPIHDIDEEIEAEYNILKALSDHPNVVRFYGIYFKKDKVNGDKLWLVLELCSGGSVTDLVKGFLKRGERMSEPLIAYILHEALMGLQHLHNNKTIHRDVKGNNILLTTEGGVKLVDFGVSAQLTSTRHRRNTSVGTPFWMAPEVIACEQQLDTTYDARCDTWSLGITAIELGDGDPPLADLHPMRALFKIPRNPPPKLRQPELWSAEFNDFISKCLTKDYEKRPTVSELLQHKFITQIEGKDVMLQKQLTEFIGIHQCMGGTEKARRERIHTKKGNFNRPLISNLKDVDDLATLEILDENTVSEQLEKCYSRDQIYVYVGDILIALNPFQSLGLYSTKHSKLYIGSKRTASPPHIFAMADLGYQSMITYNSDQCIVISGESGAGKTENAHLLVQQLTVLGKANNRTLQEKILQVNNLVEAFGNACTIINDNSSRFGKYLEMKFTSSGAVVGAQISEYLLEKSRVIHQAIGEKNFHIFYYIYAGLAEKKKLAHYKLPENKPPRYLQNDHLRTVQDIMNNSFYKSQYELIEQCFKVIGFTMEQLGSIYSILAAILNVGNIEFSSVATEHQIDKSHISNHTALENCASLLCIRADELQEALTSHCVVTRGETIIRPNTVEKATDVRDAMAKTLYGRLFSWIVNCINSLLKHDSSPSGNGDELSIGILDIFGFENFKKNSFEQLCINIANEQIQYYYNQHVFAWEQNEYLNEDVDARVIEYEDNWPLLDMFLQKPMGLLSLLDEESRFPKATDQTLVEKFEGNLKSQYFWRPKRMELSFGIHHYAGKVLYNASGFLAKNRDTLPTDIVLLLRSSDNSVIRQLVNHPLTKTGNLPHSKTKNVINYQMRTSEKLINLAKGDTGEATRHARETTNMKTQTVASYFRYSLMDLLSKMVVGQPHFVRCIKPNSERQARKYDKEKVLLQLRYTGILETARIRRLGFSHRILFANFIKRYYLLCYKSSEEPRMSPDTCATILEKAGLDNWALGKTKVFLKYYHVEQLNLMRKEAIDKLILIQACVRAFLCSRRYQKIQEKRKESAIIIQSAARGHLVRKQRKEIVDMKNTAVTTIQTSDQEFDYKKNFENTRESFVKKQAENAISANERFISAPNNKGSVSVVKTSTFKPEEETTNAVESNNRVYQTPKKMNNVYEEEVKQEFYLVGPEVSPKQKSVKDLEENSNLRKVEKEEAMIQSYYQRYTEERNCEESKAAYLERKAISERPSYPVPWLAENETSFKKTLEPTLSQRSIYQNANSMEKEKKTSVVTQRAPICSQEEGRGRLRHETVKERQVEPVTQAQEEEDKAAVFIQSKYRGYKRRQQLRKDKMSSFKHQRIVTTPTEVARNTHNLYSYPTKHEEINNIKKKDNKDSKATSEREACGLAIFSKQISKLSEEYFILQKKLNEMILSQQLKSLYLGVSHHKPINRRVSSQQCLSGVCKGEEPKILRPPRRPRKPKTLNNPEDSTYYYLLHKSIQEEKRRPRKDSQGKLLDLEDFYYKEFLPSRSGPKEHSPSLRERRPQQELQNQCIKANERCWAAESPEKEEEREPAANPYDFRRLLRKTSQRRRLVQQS
T20 sequence (P49760 whole entry): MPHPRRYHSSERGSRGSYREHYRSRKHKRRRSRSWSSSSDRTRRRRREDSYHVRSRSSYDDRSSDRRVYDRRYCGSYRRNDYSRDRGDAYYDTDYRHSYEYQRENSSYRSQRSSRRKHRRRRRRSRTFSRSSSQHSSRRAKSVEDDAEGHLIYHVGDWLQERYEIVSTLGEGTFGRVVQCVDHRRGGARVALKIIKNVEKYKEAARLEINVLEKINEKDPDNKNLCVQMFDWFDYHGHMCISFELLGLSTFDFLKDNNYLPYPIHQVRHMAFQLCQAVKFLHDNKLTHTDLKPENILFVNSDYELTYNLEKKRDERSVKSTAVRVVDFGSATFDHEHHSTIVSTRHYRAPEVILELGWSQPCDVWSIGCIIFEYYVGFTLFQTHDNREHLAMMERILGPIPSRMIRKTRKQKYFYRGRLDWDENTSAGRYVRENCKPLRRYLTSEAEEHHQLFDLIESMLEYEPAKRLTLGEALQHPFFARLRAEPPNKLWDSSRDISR
T24 sequence (P00533 25-1210 G719C): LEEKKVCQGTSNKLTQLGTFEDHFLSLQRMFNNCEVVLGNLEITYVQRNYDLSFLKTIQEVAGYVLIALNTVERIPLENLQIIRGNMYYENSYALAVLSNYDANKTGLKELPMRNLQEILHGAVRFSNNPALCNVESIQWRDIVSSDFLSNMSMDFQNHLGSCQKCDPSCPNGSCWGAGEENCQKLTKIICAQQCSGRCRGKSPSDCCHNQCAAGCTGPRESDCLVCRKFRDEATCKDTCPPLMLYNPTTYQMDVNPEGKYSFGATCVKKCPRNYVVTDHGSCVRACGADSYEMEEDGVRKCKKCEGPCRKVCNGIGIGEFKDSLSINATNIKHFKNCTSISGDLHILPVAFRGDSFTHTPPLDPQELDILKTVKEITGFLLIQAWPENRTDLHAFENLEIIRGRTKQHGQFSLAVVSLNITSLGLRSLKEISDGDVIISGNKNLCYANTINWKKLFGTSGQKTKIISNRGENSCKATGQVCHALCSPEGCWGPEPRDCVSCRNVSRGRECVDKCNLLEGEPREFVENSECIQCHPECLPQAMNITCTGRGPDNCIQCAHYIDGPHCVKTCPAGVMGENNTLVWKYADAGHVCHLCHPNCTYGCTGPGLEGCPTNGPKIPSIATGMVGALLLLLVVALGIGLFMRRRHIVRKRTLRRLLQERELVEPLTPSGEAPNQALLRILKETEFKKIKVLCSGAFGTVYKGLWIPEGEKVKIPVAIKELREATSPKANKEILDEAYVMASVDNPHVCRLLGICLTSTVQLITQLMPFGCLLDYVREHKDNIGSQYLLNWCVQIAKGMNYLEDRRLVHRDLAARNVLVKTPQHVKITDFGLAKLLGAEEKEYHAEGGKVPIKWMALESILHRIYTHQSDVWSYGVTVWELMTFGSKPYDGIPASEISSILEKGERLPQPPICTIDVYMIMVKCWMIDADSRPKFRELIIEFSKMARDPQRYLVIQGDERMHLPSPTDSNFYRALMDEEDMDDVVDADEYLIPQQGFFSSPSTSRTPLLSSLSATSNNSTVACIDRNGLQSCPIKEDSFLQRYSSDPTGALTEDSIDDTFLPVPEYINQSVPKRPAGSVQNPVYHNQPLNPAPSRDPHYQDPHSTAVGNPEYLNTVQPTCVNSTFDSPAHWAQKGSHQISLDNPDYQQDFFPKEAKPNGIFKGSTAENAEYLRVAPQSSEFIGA
T6 sequence (Q9UQB9 whole entry): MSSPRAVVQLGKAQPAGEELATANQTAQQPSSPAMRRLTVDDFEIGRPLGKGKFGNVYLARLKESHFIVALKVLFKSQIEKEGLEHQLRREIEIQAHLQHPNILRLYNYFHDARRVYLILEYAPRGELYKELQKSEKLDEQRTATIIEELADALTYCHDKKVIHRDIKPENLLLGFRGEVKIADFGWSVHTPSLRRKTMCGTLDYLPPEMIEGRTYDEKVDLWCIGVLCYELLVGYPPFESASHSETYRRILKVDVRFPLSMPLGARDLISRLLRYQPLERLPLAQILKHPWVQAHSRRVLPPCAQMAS
T9 sequence (P27361 whole entry): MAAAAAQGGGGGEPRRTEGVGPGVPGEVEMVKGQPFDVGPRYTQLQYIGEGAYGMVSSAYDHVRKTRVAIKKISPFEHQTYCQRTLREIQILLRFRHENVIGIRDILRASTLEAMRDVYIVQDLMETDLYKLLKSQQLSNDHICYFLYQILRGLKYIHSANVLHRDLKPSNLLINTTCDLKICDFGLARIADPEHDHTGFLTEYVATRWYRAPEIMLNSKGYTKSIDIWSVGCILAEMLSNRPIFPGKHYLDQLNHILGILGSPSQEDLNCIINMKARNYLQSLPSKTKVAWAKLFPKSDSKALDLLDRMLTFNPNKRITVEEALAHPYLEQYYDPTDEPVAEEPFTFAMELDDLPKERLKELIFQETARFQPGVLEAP
T17 sequence (Q13177 whole entry): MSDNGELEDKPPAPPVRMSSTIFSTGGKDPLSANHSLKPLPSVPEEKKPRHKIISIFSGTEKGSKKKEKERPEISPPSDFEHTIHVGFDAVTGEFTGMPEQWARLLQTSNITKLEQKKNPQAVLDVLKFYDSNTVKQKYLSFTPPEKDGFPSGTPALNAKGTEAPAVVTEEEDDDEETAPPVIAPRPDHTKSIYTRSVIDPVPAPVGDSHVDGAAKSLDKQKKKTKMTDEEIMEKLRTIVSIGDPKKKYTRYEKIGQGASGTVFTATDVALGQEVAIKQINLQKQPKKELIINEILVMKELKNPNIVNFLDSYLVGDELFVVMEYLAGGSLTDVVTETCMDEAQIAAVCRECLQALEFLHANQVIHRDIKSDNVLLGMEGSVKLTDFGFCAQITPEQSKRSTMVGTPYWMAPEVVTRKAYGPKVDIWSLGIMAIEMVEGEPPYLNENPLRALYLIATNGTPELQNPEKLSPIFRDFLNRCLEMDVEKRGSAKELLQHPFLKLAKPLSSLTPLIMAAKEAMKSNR

SMILES: NCCCNc1nc2c(Br)c(Br)c(Br)c(Br)c2[nH]1 [Compound 11, N-(3-aminopropyl)-4,5,6,7-tetrabromo-1H-benzo[d]imidazol-2-amine]
- remaining binding at 1 µM [1]: 67%
- remaining binding at 1 µM [2]: 100%
- remaining binding at 1 µM [3]: 76%
- remaining binding at 1 µM [4]: 4.5%
- remaining binding at 1 µM [5]: 100%
- remaining binding at 1 µM [6]: 90%
- remaining binding at 1 µM [7]: 100%
- remaining binding at 1 µM [8]: 100%
- remaining binding at 1 µM [9]: 83%
- remaining binding at 1 µM [10]: 97%
- remaining binding at 1 µM [11]: 100%
- remaining binding at 1 µM [12]: 100%
- remaining binding at 1 µM [13]: 100%
- remaining binding at 1 µM [14]: 100%
- remaining binding at 1 µM [15]: 75%
- % binding [16]: 56%
- remaining binding at 1 µM [17]: 100%
- remaining binding at 1 µM [18]: 70%
- remaining binding at 1 µM [19]: 100%
- remaining binding at 1 µM [20]: 100%
- remaining binding at 1 µM [21]: 98%
- remaining binding at 1 µM [22]: 64%
- remaining binding at 1 µM [23]: 98%
- remaining binding at 1 µM [24]: 97%
- remaining binding at 1 µM [25]: 31%
- % binding [26]: 100%
- remaining binding at 1 µM [27]: 100%
- % binding [28]: 100%
- remaining binding at 1 µM [29]: 100%
- % binding [30]: 100%
- remaining binding at 1 µM [31]: 73%
- remaining binding at 1 µM [32]: 95%
- remaining binding at 1 µM [33]: 98%
- remaining binding at 1 µM [34]: 100%
